How the values were obtained:
[1] = lipid maldigestion or malabsorption rat model (XENICAL-induced), EPA level in red blood cell lipids; format: in vivo; settings: FIG. 2; for level of EPA incorporated in red blood cells: rats, day 7, with XENICAL (ORLISTAT)
Procedure: The concept was tested in a lipid maldigestion or malabsorption rat model. The maldigestion or malabsorption condition was obtained using XENICAL® (ORLISTAT), a pancreatic and gastric lipases inhibitor (tetrahydrolipstatin; see FIG. 7). Rats were fed during 21 days with long-chain polyunsaturated fatty acid (LC-PUFA) supplements containing mainly eicosapentaenoic (EPA) acid. Fish oil was used as a source of triacylglycerols, and different EPA glycerides were evaluated. XENICAL® (ORLISTAT) was given at a level sufficient to decrease lipid absorption by 40%. A group receiving fish oil without XENICAL® (ORLISTAT) was used as a positive control. At different time intervals (D3, D7, D14 and D21), the fatty acid profiles of red blood cell and plasma lipids were determined. At the end of the experiment, the fatty acid profiles of different tissues were determined.
The main objective was to follow the level of EPA in red blood cell and plasma lipids. The main comparison evaluated was the difference in EPA level between the group receiving EPA-containing sn-1(3) MAG (FIG. 1) in combination with XENICAL® (ORLISTAT) and the […] (fish oil+XENICAL® (ORLISTAT)).
This comparison corroborates the validity of the model.

[2] = clinical study of EPA delivery under lipid maldigestion induced by XENICAL (ORLISTAT); format: in vivo, human
Procedure: This clinical study compared the efficacy of sn-1(3) MAG and fish oil (TAG) in delivering EPA in humans under lipid maldigestion conditions induced by XENICAL® (ORLISTAT). The comparison was tested in volunteers having a BMI of 37-40 kg/m2 and treated with XENICAL® (ORLISTAT) to induce lipid maldigestion or not treated with XENICAL® (ORLISTAT). The primary objective was to assess accretion of EPA in erythrocytes over 21 days when consumed as fish oil (TAG) or sn-1(3) MAG. The secondary objectives were to assess accretion of EPA in plasma over 21 days and also to assess the pharmacokinetics of EPA after an acute dose either in the form of sn-1(3) MAG or TAG (AUC in chylomicrons over 10 hours postprandial).

| Compound | EPA incorporation in red blood cells ([1]; rats fed fish oil with XENICAL (ORLISTAT) vs fish oil without, day 7) | carrier for EPA compared with fish oil (TAG) ([2]; obese subjects treated with XENICAL (ORLISTAT)) | chronic effect: accretion of EPA in erythrocytes after 21 days ([2]; obese volunteers, with XENICAL (ORLISTAT), compared with fish oil + XENICAL, p=0.0001, FIG. 5) | chronic effect: accretion of EPA in plasma after 21 days ([2]; obese volunteers, with XENICAL (ORLISTAT), relative to fish oil + XENICAL, p=0.0003, FIG. 6) | level of EPA incorporated in red blood cells ([1]; compared with fish oil + XENICAL group, all P values lower than 0.05) | level of EPA incorporated in red blood cells ([1]; compared with fish oil group without XENICAL) |
| --- | --- | --- | --- | --- | --- | --- |
| CCCCCCCCCCC[C@@H](C[C@@H]1OC(=O)[C@H]1CCCCCC)OC(=O)[C@H](CC(C)C)NC=O [XENICAL® (ORLISTAT), tetrahydrolipstatin, reference compound] | decreases EPA incorporation in red blood cells | – | – | – | – | – |
| CC/C=C\C/C=C\C/C=C\C/C=C\C/C=C\CCCC(=O)OCC(O)CO (stereo not drawn) [sn-1(3) MAG, sn-1(3)-monoeicosapentaenoylglycerol] | – | better carrier for EPA than fish oil | statistically significant | statistically significant | statistically higher | even higher than the fish oil group |
